In patent US20140288044A1, “COMPOSITIONS AND THERAPEUTIC USES OF IKK-RELATED KINASE EPSILON AND TANKBINDING KINASE 1 INHIBITORS” (Alzheimer's Institute of America, Inc., priority 2011, published 2014):
pIC50: −log10 of the molar value. Read-outs that look alike come from different tables or passages of the source.

Legend:
[1] = target: T1, IKKε (Homo sapiens, UniProt Q14164); assay: In-vitro IKKε kinase assay (radiolabelled ATP, filterplate); format: biochemical
T1 construct: His-tag (in-house Sf9 preparation) or GST-tag (purchased Invitrogen preparation); these are alternatives, not both on one protein; host or cells: Sf9 cells
T1 sequence (Q14164 1-716): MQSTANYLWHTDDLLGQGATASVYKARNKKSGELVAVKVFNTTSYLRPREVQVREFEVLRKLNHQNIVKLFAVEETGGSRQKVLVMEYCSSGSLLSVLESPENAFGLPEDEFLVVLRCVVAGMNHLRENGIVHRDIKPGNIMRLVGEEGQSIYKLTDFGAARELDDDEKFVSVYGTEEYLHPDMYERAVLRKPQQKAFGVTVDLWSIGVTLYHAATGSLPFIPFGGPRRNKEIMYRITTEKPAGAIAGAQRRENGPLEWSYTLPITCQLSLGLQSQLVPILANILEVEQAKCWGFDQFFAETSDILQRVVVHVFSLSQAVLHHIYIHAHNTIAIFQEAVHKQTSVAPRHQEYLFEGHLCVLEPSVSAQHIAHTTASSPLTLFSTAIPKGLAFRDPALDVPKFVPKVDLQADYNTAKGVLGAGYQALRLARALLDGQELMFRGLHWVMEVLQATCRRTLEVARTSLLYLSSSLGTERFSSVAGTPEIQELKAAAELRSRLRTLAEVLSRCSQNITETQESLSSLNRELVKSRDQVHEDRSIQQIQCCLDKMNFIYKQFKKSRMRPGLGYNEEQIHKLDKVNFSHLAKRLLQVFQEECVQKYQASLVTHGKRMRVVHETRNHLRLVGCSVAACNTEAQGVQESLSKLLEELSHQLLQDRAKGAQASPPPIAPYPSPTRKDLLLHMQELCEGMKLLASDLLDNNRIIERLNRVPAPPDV
Summary of the method: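 His-tagged IKKε from Sf9 cells or GST-tagged IKKε, with myelin basic protein, casein or dephosphorylated casein as substrate and 32 μM ATP (2× Km) plus [γ^33]ATP. "Normal" assay used 0.1 μg/ml enzyme; "sensitized" used 0.015 μg/ml with dephosphorylated casein only. Stopped after 30–45 min with phosphoric acid; P-81 filter counts normalized to DMSO after background subtraction.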

[2] = tested on: RANTES secretion by prostate cancer DU145 cells; assay: ELISA to detect secreted RANTES, prostate cancer DU145 cells; format: cell-based; conditions: Homo sapiens, DU-145
Experimental: Prostate cancer DU145 cells were seeded at 20,000 cells/well in a 96-well tissue culture plate. The following day media was removed and replaced with complete media containing IKKε/TBK1 inhibitor (starting concentration 25 μM, 1:3 dilutions, final DMSO 0.05%). Cells were incubated for 20 hours and culture supernatant used to determine secreted RANTES levels using a commercially available ELISA kit (R & D Systems, Minneapolis, Minn.).

[3] = tested on: IKKε-mediated phosphorylation of IRF3; assay: ELISA for in-situ phosphorylation of IRF3 (phospho-Ser396) in HEK293T cells cotransfected with IRF3 and IKKε; format: cell-based; conditions: Homo sapiens, HEK-293T
Summary of the method: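 HEK293T cells cotransfected with IRF3 and IKKε were treated with compound for 20 h, and lysates were assayed by ELISA for phospho-Ser396 IRF3, normalized to DMSO. Viability was checked in parallel by CellTiter-Glo. For TBK1, cells cotransfected with IRF7 and TBK1 were treated overnight and probed by Western blot for phospho-Ser477/Ser479 IRF7.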

[4] = "sensitized" assay, read-out: IC50, inhibition of the kinase activity of IKKε
[5] = Table 3, in vitro, read-out: IKKε IC50
[6] = in-vitro IKKε kinase inhibition assays, given as 0.005 μM (5 nM), read-out: IKKε kinase inhibitory activity (IC50 value)
[7] = DU145 cells, 20 hours, read-out: IC50, inhibition of the secretion of RANTES
[8] = Table 3, DU145 cells in culture, read-out: RANTES Secretion IC50
[9] = 20 h, HEK293T cells, 20 hours, read-out: IC50, in-situ IKKε-mediated phosphorylation of IRF3
[10] = Table 3, HEK293T cells in culture, read-out: pIRF3 ELISA IC50
[11] = 20 h, HEK293T cells, 20 hours, range given from about 1 μM to about 250 nM, read-out: IC50, in-situ IKKε-mediated phosphorylation of IRF3

Row | pIC50 [1, 5] | pIC50 [1, 6] | pIC50 [2, 7] | pIC50 [2, 8] | pIC50 [3, 9] | pIC50 [3, 10] | pIC50 [3, 11] | SMILES | pIC50 [1, 4]
1 | 8.56 | > 8.30 | 7.22 to 7.70 | 7.28 | – | 6.50 | 6.00 to 6.60 | COC1CN(Cc2ccc(Nc3nccc(-c4ccc(OC5CCOCC5)c(C#N)c4)n3)cn2)C1 [Example Compound 48, 5-[2-({6-[(3-Methoxyazetidin-1-yl)methyl]pyridin-3-yl}amino)pyrimidin-4-yl]-2-(tetrahydro-2H-pyran-4-yloxy)benzonitrile] | > 8.30
2 | – | > 8.30 | 6.90 to 7.22 | – | – | – | – | N#Cc1cc(-c2ccnc(Nc3cccnc3)n2)ccc1OC1CCOCC1 [Example Compound 11, 5-[2-(Pyridin-3-ylamino)pyrimidin-4-yl]-2-(tetrahydro-2H-pyran-4-yloxy)benzonitrile] | > 8.30
3 | – | – | – | – | 6.60 to 7.00 | – | – | COC(=O)c1cc(Nc2nccc(-c3ccc(OC4CCOCC4)c(C#N)c3)n2)ccn1 [Example Compound 230, Methyl 4-({4-[3-cyano-4-(tetrahydro-2H-pyran-4-yloxy)phenyl]pyrimidin-2-yl}amino)pyridine-2-carboxylate] | > 8.30
4 | – | > 8.30 | – | – | – | – | 6.00 to 6.60 | Cc1cc(Nc2nccc(-c3ccc(O[C@@H]4CCN(C(=O)CO)C4)c(C#N)c3)n2)ccn1 [Example Compound 123, 2-{[(3R)-1-(Hydroxyacetyl)pyrrolidin-3-yl]oxy}-5-{2-[(2-methylpyridin-4-yl)amino]pyrimidin-4-yl}benzonitrile] | –
5 | – | – | – | – | > 7.00 | – | – | N#Cc1cc(-c2ccnc(Nc3ccnc(CO)c3)n2)ccc1OC1CCOCC1 [Example Compound 227, 5-(2-{[2-(Hydroxymethyl)pyridin-4-yl]amino}pyrimidin-4-yl)-2-(tetrahydro-2H-pyran-4-yloxy)benzonitrile] | > 8.30
6 | – | – | – | – | 5.30 to 6.00 | – | – | COC1CN(Cc2cc(Nc3nccc(-c4ccc(OC5CCOCC5)c(C#N)c4)n3)ccn2)C1 [Example Compound 219, 5-[2-({2-[(3-Methoxyazetidin-1-yl)methyl]pyridin-4-yl}amino)pyrimidin-4-yl]-2-(tetrahydro-2H-pyran-4-yloxy)benzonitrile] | > 8.30
7 | – | > 8.30 | – | – | > 7.00 | – | – | N#Cc1cc(-c2ccnc(Nc3ccnc(N4CCN(CCO)CC4)c3)n2)ccc1NC(=O)C1CC1 [Example Compound 143, N-{2-Cyano-4-[2-({2-[4-(2-hydroxyethyl)piperazin-1-yl]pyridin-4-yl}amino)pyrimidin-4-yl]phenyl}cyclopropanecarboxamide] | > 8.30
8 | – | > 8.30 | – | – | – | – | 6.00 to 6.60 | COCCNC(=O)c1cncc(Nc2nccc(-c3ccc(OC4CCOCC4)c(C#N)c3)n2)c1 [Example Compound 15, 5-({4-[3-Cyano-4-(tetrahydro-2H-pyran-4-yloxy)phenyl]pyrimidin-2-yl}amino)-N-(2-methoxyethyl)pyridine-3-carboxamide] | > 8.30

Continued, molecule first:

Row | SMILES | pIC50 [1, 5] | pIC50 [1, 6] | pIC50 [2, 7] | pIC50 [2, 8] | pIC50 [3, 9] | pIC50 [3, 10] | pIC50 [3, 11] | pIC50 [1, 4]
9 | N#Cc1cc(-c2ccnc(Nc3ccc(N4CCOCC4)nc3)n2)ccc1NC(=O)C1CC1 [Example Compound 141, N-[2-Cyano-4-(2-{[6-(morpholin-4-yl)pyridin-3-yl]amino}pyrimidin-4-yl)phenyl]cyclopropanecarboxamide] | 8.72 | > 8.30 | 7.22 to 7.70 | 7.68 | > 7.00 | 7.49 | – | > 8.30
10 | CN(CCO)c1ccc(Nc2nccc(-c3ccc(OCC4CC4)c(C#N)c3)n2)cn1 [Example Compound 111, 2-(Cyclopropylmethoxy)-5-[2-({6-[(2-hydroxyethyl)(methyl)amino]pyridin-3-yl}amino)pyrimidin-4-yl]benzonitrile] | – | > 8.30 | 7.22 to 7.70 | – | – | – | – | > 8.30
11 | N#Cc1cc(-c2ccnc(Nc3ccc(CN4CCC4)nc3)n2)ccc1OC1CCOCC1 [Example Compound 47, 5-(2-{[6-(Azetidin-1-ylmethyl)pyridin-3-yl]amino}pyrimidin-4-yl)-2-(tetrahydro-2H-pyran-4-yloxy)benzonitrile] | 8.20 | – | 7.22 to 7.70 | 7.40 | – | 6.58 | 6.00 to 6.60 | –
12 | COCCOC1CN(Cc2ccc(Nc3nccc(-c4ccc(OC5CCOCC5)c(C#N)c4)n3)cn2)C1 [Example Compound 49, 5-{2-[(6-{[3-(2-Methoxyethoxy)azetidin-1-yl]methyl}pyridin-3-yl)amino]pyrimidin-4-yl}-2-(tetrahydro-2H-pyran-4-yloxy)benzonitrile] | 8.21 | – | 7.22 to 7.70 | 7.25 | – | 6.44 | 6.00 to 6.60 | –
13 | COC1CN(Cc2ccc(Nc3nccc(-c4ccc(NC(=O)C5CC5)c(C#N)c4)n3)cn2)C1 [Example Compound 146, N-{2-Cyano-4-[2-({6-[(3-methoxyazetidin-1-yl)methyl]pyridin-3-yl}amino)pyrimidin-4-yl]phenyl}cyclopropanecarboxamide] | – | – | 6.90 to 7.22 | – | – | – | – | –
14 | N#Cc1cc(-c2ccnc(Nc3cnc(N4CCOCC4)nc3)n2)ccc1OC1CCOCC1 [Example Compound 2, 5-(2-{[2-(Morpholin-4-yl)pyrimidin-5-yl]amino}pyrimidin-4-yl)-2-(tetrahydro-2H-pyran-4-yloxy)benzonitrile] | – | – | 6.90 to 7.22 | – | – | – | – | –
15 | COCCOC1CN(C(=O)c2ccc(Nc3nccc(-c4ccc(OC5CCOCC5)c(C#N)c4)n3)cn2)C1 [Example Compound 28, 5-{2-[(6-{[3-(2-Methoxyethoxy)azetidin-1-yl]carbonyl}pyridin-3-yl)amino]pyrimidin-4-yl}-2-(tetrahydro-2H-pyran-4-yloxy)benzonitrile] | – | – | 6.90 to 7.22 | – | 5.30 to 6.00 | – | – | –
16 | COCCNc1cc(Nc2nccc(-c3ccc(OC4CCN(C(=O)CO)CC4)c(C#N)c3)n2)ccn1 [Example Compound 238, 2-{[1-(Hydroxyacetyl)piperidin-4-yl]oxy}-5-[2-({2-[(2-methoxyethyl)amino]pyridin-4-yl}amino)pyrimidin-4-yl]benzonitrile] | – | – | – | – | – | – | 6.00 to 6.60 | > 8.30
17 | CC(=O)NCc1ccc(Nc2nccc(-c3ccc(OC4CCOCC4)c(C#N)c3)n2)cn1 [Example Compound 228, N-{[5-({4-[3-Cyano-4-(tetrahydro-2H-pyran-4-yloxy)phenyl]pyrimidin-2-yl}amino)pyridin-2-yl]methyl}acetamide] | – | – | – | – | – | – | 6.00 to 6.60 | > 8.30
